Data taken from the supplement of paper PMC4862054.

Assays:
Settings in all cases: incubation time: 72 h
MDA-MB-231 = test: drug sensitivity score (DSS), CellTiter-Glo (DSS (AUC-based score)); higher = stronger drug effect (viability inhibition or cytotoxicity); extreme values may be limits of the assay
Procedure, shortened: (§1)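 In 384-well plates, compound was laid out at 5 concentrations in 10-fold steps over a 10,000-fold range specific to each compound, and breast cancer cell lines were seeded on top in 20 µl suspension for a 72 h incubation. CellTox Green fluorescence and then CellTiter-Glo luminescence were read, and each plate was normalised to 0.1 % DMSO and a positive kill control. The drug sensitivity score was calculated from the area under the fitted dose-response curve.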

HDQ-P1 [1] = test: as above
Procedure, shortened: as §1

CAL-51 [2] = test: as above
Procedure, shortened: as §1

SK-BR-3 [3] = test: as above
Procedure, shortened: as §1

CAL-148 = test: as above
Procedure, shortened: as §1

MDA-MB-436 [4] = test: as above
Procedure, shortened: as §1

BT-474 [5] = test: as above
Procedure, shortened: as §1

HCC1599 [6] = test: as above
Procedure, shortened: as §1

CAL-85-1 [7] = test: as above
Procedure, shortened: as §1

BT-549 = test: as above
Procedure, shortened: as §1

HCC1937 [8] = test: as above
Procedure, shortened: as §1

MDA-MB-453 = test: as above
Procedure, shortened: as §1

CAL-120 = test: as above
Procedure, shortened: as §1

DU-4475 = test: as above
Procedure, shortened: as §1

MFM-223 = test: as above
Procedure, shortened: as §1

Hs578T = test: as above
Procedure, shortened: as §1

HDQ-P1 [9] = test: normalised viability (% of control), CellTiter-Blue; higher = more viable cells (about 100 = DMSO control)
Procedure, shortened: (§2)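 Compound dissolved in 5 µl medium was pre-loaded into 384-well plates, and breast cancer cell lines in 20 µl suspension were seeded on top and incubated 72 h. After adding 2.5 µl CellTiter-Blue reagent for 2 h at 37 °C, fluorescence was read at 560/590 nm. Plates were normalised to vehicle (100) and a positive kill control (0), with Z'-factor quality control. Each value is normalised viability at a single listed concentration from the series.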

CAL-51 [10] = test: as above
Procedure, shortened: as §2

SK-BR-3 [11] = test: as above
Procedure, shortened: as §2

MDA-MB-436 [12] = test: as above
Procedure, shortened: as §2

BT-474 [13] = test: as above
Procedure, shortened: as §2

HCC1143 = test: as above
Procedure, shortened: as §2

HCC1599 [14] = test: as above
Procedure, shortened: as §2

CAL-85-1 [15] = test: as above
Procedure, shortened: as §2

HCC1937 [16] = test: as above
Procedure, shortened: as §2

C=CCn1c(=O)c2cnc(Nc3ccc(N4CCN(C)CC4)cc3)nc2n1-c1cccc(C(C)(C)O)n1 [MK1775]
Settings	drug sensitivity score
BT-474 [5]	13.9
BT-549	15.7
CAL-51 [2]	15.5
CAL-85-1 [7]	16.2
CAL-120	12.1
CAL-148	19.3
DU-4475	8.47
HCC1599 [6]	19.9
HCC1937 [8]	12.4
HDQ-P1 [1]	14.9
Hs578T	14.5
MDA-MB-231	15.7
MDA-MB-436 [4]	16.7
MDA-MB-453	14.6
MFM-223	12.4
SK-BR-3 [3]	18.8

normalised viability [%]
Settings	BT-474 [13]	CAL-51 [10]	CAL-85-1 [15]	HCC1143	HCC1599 [14]	HCC1937 [16]	HDQ-P1 [9]	MDA-MB-436 [12]	SK-BR-3 [11]
3 nM	–	98.9	79.6	–	–	–	92.9	–	–
10 nM	94	–	–	109	86.4	77.7	–	113	79.8
30 nM	–	90.8	80.9	–	–	–	98.5	–	–
100 nM	–	87	78.6	–	–	–	94.4	–	–
1000 nM	33.9	–	–	55.7	59	34.1	–	37	9.36
10000 nM	35.7	–	–	23.7	45.3	27.2	–	21.4	10.2

Nc1ccn([C@@H]2O[C@H](CO)[C@@H](O)C2(F)F)c(=O)n1 [Gemcitabine]
Settings	drug sensitivity score
BT-474 [5]	3.22
BT-549	14.7
CAL-51 [2]	16.7
CAL-85-1 [7]	12.4
CAL-120	3.04
CAL-148	10.6
DU-4475	4.13
HCC1599 [6]	12.8
HCC1937 [8]	0
HDQ-P1 [1]	1.57
Hs578T	4.8
MDA-MB-231	0
MDA-MB-436 [4]	16.8
MDA-MB-453	4.36
MFM-223	0
SK-BR-3 [3]	13.6

normalised viability [%]
Settings	BT-474 [13]	CAL-51 [10]	CAL-85-1 [15]	HCC1143	HCC1599 [14]	HCC1937 [16]	HDQ-P1 [9]	MDA-MB-436 [12]	SK-BR-3 [11]
0.3 nM	–	102	96.6	–	–	–	110	–	–
1 nM	119	–	–	101	99.4	92.3	–	98.1	108
3 nM	–	98	85.1	–	–	–	108	–	–
10 nM	–	83.2	85.3	–	–	–	100	–	–
100 nM	103	–	–	49.7	65.9	38.8	–	53.1	47
1000 nM	101	–	–	45.8	25.4	27.9	–	52.5	40.9

C/C(=C\c1csc(C)n1)[C@@H]1C[C@@H]2O[C@]2(C)CCC[C@H](C)[C@H](O)[C@@H](C)C(=O)C(C)(C)[C@@H](O)CC(=O)N1 [Ixabepilone]
Settings	drug sensitivity score
BT-474 [5]	1.23
BT-549	13.9
CAL-51 [2]	14.8
CAL-85-1 [7]	2.2
CAL-120	0
CAL-148	0
DU-4475	0
HCC1599 [6]	0
HCC1937 [8]	0
HDQ-P1 [1]	0
Hs578T	0
MDA-MB-231	0
MDA-MB-436 [4]	0
MDA-MB-453	0
MFM-223	0
SK-BR-3 [3]	0

normalised viability [%]
Settings	BT-474 [13]	CAL-51 [10]	CAL-85-1 [15]	HCC1143	HCC1599 [14]	HCC1937 [16]	HDQ-P1 [9]	MDA-MB-436 [12]	SK-BR-3 [11]
0.3 nM	–	110	83.4	–	–	–	91.1	–	–
1 nM	109	–	–	79.3	98.5	87.5	–	88.8	87.8
3 nM	–	107	87.8	–	–	–	76.4	–	–
10 nM	–	107	88.9	–	–	–	95.3	–	–
100 nM	115	–	–	80.7	87.6	89.1	–	90.1	82.5
1000 nM	26	–	–	25.6	81.2	17.2	–	51.7	12.6

COc1cc(Nc2c(C#N)cnc3cc(OCCCN4CCN(C)CC4)c(OC)cc23)c(Cl)cc1Cl [Bosutinib]
Settings	drug sensitivity score
BT-474 [5]	6.85
BT-549	4.99
CAL-51 [2]	7.53
CAL-85-1 [7]	9.16
CAL-120	5.53
CAL-148	1.7
DU-4475	0
HCC1599 [6]	5.58
HCC1937 [8]	7.57
HDQ-P1 [1]	11.3
Hs578T	0.947
MDA-MB-231	8.52
MDA-MB-436 [4]	7.31
MDA-MB-453	5.47
MFM-223	4.34
SK-BR-3 [3]	5.72

normalised viability [%]
Settings	BT-474 [13]	CAL-51 [10]	CAL-85-1 [15]	HCC1143	HCC1599 [14]	HCC1937 [16]	HDQ-P1 [9]	MDA-MB-436 [12]	SK-BR-3 [11]
3 nM	–	115	92.2	–	–	–	109	–	–
10 nM	113	–	–	83.8	131	106	–	111	99
30 nM	–	114	111	–	–	–	121	–	–
100 nM	–	120	96.8	–	–	–	104	–	–
1000 nM	94.6	–	–	73	93.3	84.9	–	95	86.3
10000 nM	6.35	–	–	48.9	51.7	8.95	–	16.8	1.28
